Experimental data: ChEMBL document CHEMBL5634189, “Synthesis and in Vitro Evaluation of CAPE Derivatives as Ferroptosis Inducers in Triple Negative Breast Cancer” (ACS Med Chem Lett, 2024)
Activity calls are given as the source filed them. The calls are words filed in the database; no cut-off is given here. Where a SMILES comes first, the peptide text is derived from it. The star is where a group is joined. Cbz = O=C(OCc1ccccc1)*; CH2F = FC*

What was measured:
MDA-MB-231 [1] = test: Induction of ferroptosis in human MDA-MB-231 cells assessed as reduction in cell viability at 10 to 50 uM incubated for 24 hrs by MTT assay; assay type: functional, cell-based; conditions: dose 10-50 µM
[2] = target: T1, Heme oxygenase 1 (Homo sapiens) (UniProt P09601); test: Induction of HO-1 enzymatic activity in human MDA-MB-231 cells assessed as increase in bilirubin formation at 10 uM incubated for 18 hrs in presence of NADPH by double-beam spectrophotometer analysis; assay type: cell-based; conditions: filed as activator
T1 sequence (whole entry): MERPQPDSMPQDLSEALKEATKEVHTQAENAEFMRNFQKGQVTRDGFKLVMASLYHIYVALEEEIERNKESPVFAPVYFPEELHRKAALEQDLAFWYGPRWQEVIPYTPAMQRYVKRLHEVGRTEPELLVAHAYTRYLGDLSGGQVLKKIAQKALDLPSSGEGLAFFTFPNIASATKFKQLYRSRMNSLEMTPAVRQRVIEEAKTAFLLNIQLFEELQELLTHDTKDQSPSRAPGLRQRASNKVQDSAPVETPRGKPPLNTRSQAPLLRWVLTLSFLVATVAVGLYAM

MDA-MB-231 [3] = test: Induction of ferroptosis in human MDA-MB-231 cells assessed as reduction in cell viability at 50 uM incubated for 48 hrs in presence of ferrostatin-1 by MTT assay; assay type: functional, cell-based
MDA-MB-231 [4] = test: Cytotoxicity against human MDA-MB-231 cells assessed as reduction in cell viability at 50 uM incubated for 48 hrs by MTT assay; assay type: functional, cell-based
MDA-MB-231 [5] = test: Upregulation of HO-1 expression in human MDA-MB-231 cells at 10 uM incubated for 18 hrs by ELISA analysis; assay type: functional, cell-based
MDA-MB-231 [6] = test: Induction of ferroptosis in human MDA-MB-231 cells assessed as increase in lipid hydroperoxide level at 50 uM incubated for 30 mins in presence of ferrostatin-1; assay type: functional, cell-based
MDA-MB-231 [7] = test: Induction of ferroptosis in human MDA-MB-231 cells assessed as reduction in GSH content at 50 uM incubated for 20 mins in presence of ferrostatin-1 by spectrophotometric assay; assay type: functional, cell-based
MDA-MB-231 [8] = test: Induction of ferroptosis in human MDA-MB-231 cells assessed as effect on IL-6 level at 50 uM incubated for 5 to 18 hrs in presence of ferrostatin-1 by ELISA analysis; assay type: functional, cell-based; conditions: time 5-18 hrs
MDA-MB-231 [9] = test: Induction of ROS production in human MDA-MB-231 cells assessed as increase in fluorescence intensity measured for 1 to 6 hrs; assay type: functional, cell-based; conditions: time 1-6 hrs
Cell membrane [10] = test: Induction of mitochondrial membrane dysfunction in human MDA-MB-231 cells assessed as increase in green fluorescence intensity incubated for 6 hrs by JC-1 staining based fluorescence microscopic analysis; assay type: cell membranes
Cell membrane [11] = test: Induction of mitochondrial membrane dysfunction in human MDA-MB-231 cells assessed as decrease in red fluorescence intensity incubated for 6 hrs by JC-1 staining based fluorescence microscopic analysis; assay type: cell membranes
MDA-MB-231 [12] = test: Cytotoxicity against human MDA-MB-231 cells assessed as reduction in cell viability at 50 uM incubated for 48 hrs in presence of ferrostatin-1 by MTT assay; assay type: functional, cell-based
MDA-MB-231 [13] = test: Cytotoxicity against human MDA-MB-231 cells assessed as reduction in cell viability at 50 uM incubated for 48 hrs in presence of Z-VAD-FMK by MTT assay; assay type: functional, cell-based
MDA-MB-231 [14] = test: Induction of ferroptosis in human MDA-MB-231 cells assessed as decrease in GSH content at 10 to 50 uM incubated for 24 hrs by spectrophotometric assay; assay type: functional, cell-based; conditions: dose 10-50 µM
MDA-MB-231 [15] = test: Induction of ferroptosis in human MDA-MB-231 cells assessed as increase in intracellular Fe2+ level at 10 to 50 uM incubated for 18 hrs by colorimetric assay; assay type: functional, cell-based; conditions: dose 10-50 µM
MDA-MB-231 [16] = test: Induction of ferroptosis in human MDA-MB-231 cells assessed as increase IL-6 level at 50 uM incubated for 5 to 18 hrs by ELISA analysis; assay type: functional, cell-based; conditions: time 5-18 hrs

Row | Activity [2] | SMILES | Activity (MDA-MB-231 [1]) | also measured
1 | Active | COc1cc(CCOC(=O)/C=C/c2ccc(O)c(O)c2)cc(OC)c1 | Active | Activity (MDA-MB-231 [3]): Active
2 | Active | COc1ccc(CCOC(=O)/C=C/c2ccc(O)c(O)c2)cc1 | Active | 
3 | Active | O=C(/C=C/c1ccccc1)OCCc1c[nH]c2ccccc12 | Active | Activity (MDA-MB-231 [5]): Active; Activity (MDA-MB-231 [3]): Active; Activity (MDA-MB-231 [6]): Active; Activity (MDA-MB-231 [7]): Active; Activity (MDA-MB-231 [8]): inactive; Activity (MDA-MB-231 [9]): Active; Activity (Cell membrane [10]): Active; Activity (Cell membrane [11]): Active
4 | Active | COc1ccc(CCOC(=O)/C=C/c2ccccc2)cc1OC | Active | 
5 | Active | O=C(/C=C/c1ccc(O)c(O)c1)OCCc1c[nH]c2ccccc12 | Active | 

Further lines, the compound ahead of its results:

Row | SMILES | Activity [2] | Activity (MDA-MB-231 [1]) | also measured
6 | CCOC(=O)c1ccc(NC2CCCCC2)c(N)c1 |  |  | Activity (MDA-MB-231 [4]): Active
7 | COc1ccc(CCOC(=O)/C=C/c2ccc(O)c(O)c2)c(OC)c1 | Active | Active | 
8 | COc1ccc(OC)c(CCOC(=O)/C=C/c2ccc(O)c(O)c2)c1 | Active | Active | 
9 | O=C(/C=C/c1ccc(O)c(O)c1)OCCc1ccc2c(c1)OCO2 | Active | Active | 
10 | COc1ccc(CCOC(=O)/C=C/c2ccc(O)c(O)c2)cc1OC | Active | Active | Activity (MDA-MB-231 [3]): Active
11 | O=C(/C=C/c1ccc(O)c(O)c1)OCCc1ccccc1 | Active |  | Activity (MDA-MB-231 [4]): Active; Activity (MDA-MB-231 [12]): Active; Activity (MDA-MB-231 [13]): Active; Activity (MDA-MB-231 [14]): Active; Activity (MDA-MB-231 [15]): Active; Activity (MDA-MB-231 [16]): Active
12 | CC(C)[C@H](NC(=O)OCc1ccccc1)C(=O)N[C@@H](C)C(=O)N[C@@H](CC(=O)O)C(=O)CF (Cbz-Val-Ala-Asp-CH2F) |  |  | Activity (MDA-MB-231 [4]): Active
